In PubChem BioAssay (NCI):
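The compound was tested at five concentrations on cells cultured in 96-well plates, with a 48-hour exposure period. TGI: concentration producing complete growth inhibition.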

Key:
Assay in all cases: NCI-60 cell line screen, 48 h
786-0 renal = system: 786-0 renal
A549 NSCLC = system: A549 NSCLC
ACHN renal = system: ACHN renal
CAKI-1 renal = system: CAKI-1 renal
COLO 205 colon = system: COLO 205 colon
DLD-1 colon = system: DLD-1 colon
DMS 114 small cell lung = system: DMS 114 small cell lung
DMS 273 small cell lung = system: DMS 273 small cell lung
HCT-116 colon = system: HCT-116 colon
HCT-15 colon = system: HCT-15 colon
HOP-18 NSCLC = system: HOP-18 NSCLC
HOP-62 NSCLC = system: HOP-62 NSCLC
HOP-92 NSCLC = system: HOP-92 NSCLC
HT29 colon = system: HT29 colon
IGROV1 ovarian = system: IGROV1 ovarian
K-562 leukemia = system: K-562 leukemia
KM12 colon = system: KM12 colon
LOX IMVI melanoma = system: LOX IMVI melanoma
LXFL 529 NSCLC = system: LXFL 529 NSCLC
M14 melanoma = system: M14 melanoma
M19-MEL melanoma = system: M19-MEL melanoma
MALME-3M melanoma = system: MALME-3M melanoma
MOLT-4 leukemia = system: MOLT-4 leukemia
NCI-H226 lung = system: NCI-H226 lung
NCI-H23 lung = system: NCI-H23 lung
NCI-H460 lung = system: NCI-H460 lung
NCI-H522 lung = system: NCI-H522 lung
OVCAR-4 ovarian = system: OVCAR-4 ovarian
OVCAR-5 ovarian = system: OVCAR-5 ovarian
OVCAR-8 ovarian = system: OVCAR-8 ovarian
RPMI-8226 leukemia = system: RPMI-8226 leukemia
RXF 393 renal = system: RXF 393 renal
SF-268 CNS = system: SF-268 CNS
SF-295 CNS = system: SF-295 CNS
SF-539 CNS = system: SF-539 CNS
SK-MEL-2 melanoma = system: SK-MEL-2 melanoma
SK-MEL-28 melanoma = system: SK-MEL-28 melanoma
SK-MEL-5 melanoma = system: SK-MEL-5 melanoma
SK-OV-3 ovarian = system: SK-OV-3 ovarian
SN12C renal = system: SN12C renal
SNB-75 CNS = system: SNB-75 CNS
SNB-78 CNS = system: SNB-78 CNS
SR leukemia = system: SR leukemia
SW-620 colon = system: SW-620 colon
TK-10 renal = system: TK-10 renal
U251 CNS = system: U251 CNS
UACC-257 melanoma = system: UACC-257 melanoma
UACC-62 melanoma = system: UACC-62 melanoma
UO-31 renal = system: UO-31 renal
A498 renal = system: A498 renal
CCRF-CEM leukemia = system: CCRF-CEM leukemia
EKVX NSCLC = system: EKVX NSCLC
HCC-2998 colon = system: HCC-2998 colon
HL-60(TB) leukemia = system: HL-60(TB) leukemia
OVCAR-3 ovarian = system: OVCAR-3 ovarian
RXF-631 renal = system: RXF-631 renal
SNB-19 CNS = system: SNB-19 CNS
KM20L2 colon = system: KM20L2 colon
XF 498 CNS = system: XF 498 CNS

Measured: TGI

C=CC(Br)(CBr)CCC(Br)C(C)(C)Br (centres undefined)
35.8 µM: MOLT-4 leukemia
28.3 µM: HCT-116 colon | M14 melanoma
27.6 µM: U251 CNS | UACC-257 melanoma
26.8 µM: HT29 colon
30.1 µM: NCI-H522 lung | OVCAR-8 ovarian
21.5 µM: SR leukemia
35.7 µM: SK-OV-3 ovarian
37.4 µM: CAKI-1 renal
28.8 µM: COLO 205 colon | RXF 393 renal | UO-31 renal
23.4 µM: NCI-H460 lung
27.4 µM: M19-MEL melanoma
29.8 µM: A549 NSCLC | SK-MEL-28 melanoma
27.7 µM: LXFL 529 NSCLC
30.3 µM: NCI-H23 lung | TK-10 renal
66 µM: K-562 leukemia
11.9 µM: RPMI-8226 leukemia
22.5 µM: DMS 273 small cell lung
32.8 µM: NCI-H226 lung
22.3 µM: KM12 colon | SNB-75 CNS
19.6 µM: SNB-78 CNS
25.5 µM: LOX IMVI melanoma
26.6 µM: SW-620 colon
24.6 µM: DMS 114 small cell lung | UACC-62 melanoma
28.5 µM: IGROV1 ovarian
32.3 µM: OVCAR-4 ovarian | SF-268 CNS
25.6 µM: 786-0 renal
33.2 µM: OVCAR-5 ovarian
36.1 µM: HOP-62 NSCLC
29.9 µM: HOP-92 NSCLC | SF-539 CNS
25.3 µM: ACHN renal
28.9 µM: HOP-18 NSCLC
31.8 µM: HCT-15 colon
33.4 µM: DLD-1 colon
16 µM: SF-295 CNS
29.7 µM: SK-MEL-2 melanoma | SN12C renal
30.4 µM: MALME-3M melanoma
27.8 µM: SK-MEL-5 melanoma

Cc1ccc(S(=O)(=O)Nc2cccc(C)c2C)cc1
81.5 µM: SK-MEL-28 melanoma
87.1 µM: HL-60(TB) leukemia
84 µM: RXF 393 renal
86.8 µM: SNB-75 CNS
79.9 µM: U251 CNS
not listed: ACHN renal | CAKI-1 renal | DLD-1 colon | NCI-H522 lung | SK-MEL-2 melanoma | KM20L2 colon | XF 498 CNS
> 100 µM: all other assays above

COc1cc(-c2ccccc2)c(OC)cc1CCl
not listed: HOP-92 NSCLC | LOX IMVI melanoma | LXFL 529 NSCLC | SK-MEL-28 melanoma | SR leukemia
> 100 µM: all other assays above

CC(=O)n1cc(CC(C)O)c(=O)[nH]c1=O (centres undefined)
31.2 µM: SN12C renal
not listed: HOP-92 NSCLC | MALME-3M melanoma | RXF 393 renal | CCRF-CEM leukemia | HCC-2998 colon
> 100 µM: all other assays above
